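Five compound concentrations were applied to cells in 96-well plates for 48 hours; endpoints were derived by simple linear interpolation of the resulting dose-response curve. Here, GI50 denotes the concentration required for 50% inhibition of growth. The concentration for full growth arrest is given as TGI.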
Legend:
Test in all cases: NCI anticancer screen, dose series, 48 h
[1] = tested on: 786-0 renal
[2] = tested on: A498 renal
[3] = tested on: A549 NSCLC
[4] = tested on: ACHN renal
[5] = tested on: CAKI-1 renal
[6] = tested on: CCRF-CEM leukemia
[7] = tested on: COLO 205 colon
[8] = tested on: DLD-1 colon
[9] = tested on: DMS 273 small cell lung
[10] = tested on: EKVX NSCLC
[11] = tested on: HCC-2998 colon
[12] = tested on: HCT-116 colon
[13] = tested on: HCT-15 colon
[14] = tested on: HL-60(TB) leukemia
[15] = tested on: HOP-18 NSCLC
[16] = tested on: HOP-62 NSCLC
[17] = tested on: HOP-92 NSCLC
[18] = tested on: HT29 colon
[19] = tested on: IGROV1 ovarian
[20] = tested on: K-562 leukemia
[21] = tested on: KM12 colon
[22] = tested on: KM20L2 colon
[23] = tested on: LOX IMVI melanoma
[24] = tested on: LXFL 529 NSCLC
[25] = tested on: M14 melanoma
[26] = tested on: MALME-3M melanoma
[27] = tested on: MOLT-4 leukemia
[28] = tested on: NCI-H226 lung
[29] = tested on: NCI-H23 lung
[30] = tested on: NCI-H460 lung
[31] = tested on: NCI-H522 lung
[32] = tested on: OVCAR-3 ovarian
[33] = tested on: OVCAR-4 ovarian
[34] = tested on: OVCAR-5 ovarian
[35] = tested on: OVCAR-8 ovarian
[36] = tested on: RPMI-8226 leukemia
[37] = tested on: RXF 393 renal
[38] = tested on: SF-268 CNS
[39] = tested on: SF-295 CNS
[40] = tested on: SF-539 CNS
[41] = tested on: SK-MEL-2 melanoma
[42] = tested on: SK-MEL-28 melanoma
[43] = tested on: SK-MEL-5 melanoma
[44] = tested on: SK-OV-3 ovarian
[45] = tested on: SN12C renal
[46] = tested on: SNB-19 CNS
[47] = tested on: SNB-75 CNS
[48] = tested on: SNB-78 CNS
[49] = tested on: SW-620 colon
[50] = tested on: TK-10 renal
[51] = tested on: U251 CNS
[52] = tested on: UACC-257 melanoma
[53] = tested on: UACC-62 melanoma
[54] = tested on: UO-31 renal

With `N.N.N.N.N.N.[I-].[Os]` the GI50 [1] was over 100 µM, the TGI [1] was over 100 µM and the GI50 [2] was over 100 µM. It also gave a TGI [2] of over 100 µM, a GI50 [3] of over 100 µM and a TGI [3] of over 100 µM. The GI50 [4] was over 100 µM, the TGI [4] was over 100 µM and the GI50 [5] was over 100 µM. For the same compound, the TGI [5] was over 100 µM, the GI50 [6] was over 100 µM and the TGI [6] was over 100 µM. The GI50 [7] was over 100 µM, the TGI [7] was over 100 µM and the GI50 [8] was over 100 µM. It also gave a TGI [8] of over 100 µM, a GI50 [9] of over 100 µM and a TGI [9] of over 100 µM. For the same compound, the GI50 [10] was over 100 µM, the TGI [10] was over 100 µM and the GI50 [11] was over 100 µM. It also gave a TGI [11] of over 100 µM, a GI50 [12] of over 100 µM and a TGI [12] of over 100 µM. It also gave a GI50 [13] of over 100 µM, a TGI [13] of over 100 µM and a GI50 [14] of over 100 µM. For the same compound, the TGI [14] was over 100 µM, the GI50 [15] was over 100 µM and the TGI [15] was over 100 µM. The GI50 [16] was over 100 µM, the TGI [16] was over 100 µM and the GI50 [17] was over 100 µM. It also gave a TGI [17] of over 100 µM, a GI50 [18] of over 100 µM and a TGI [18] of over 100 µM. It also gave a GI50 [19] of over 100 µM, a TGI [19] of over 100 µM and a GI50 [20] of over 100 µM. The TGI [20] was over 100 µM, the GI50 [21] was over 100 µM and the TGI [21] was over 100 µM. It also gave a GI50 [22] of over 100 µM, a TGI [22] of over 100 µM and a GI50 [23] of over 100 µM. For the same compound, the TGI [23] was over 100 µM, the GI50 [24] was over 100 µM and the TGI [24] was over 100 µM. The GI50 [25] was over 100 µM, the TGI [25] was over 100 µM and the GI50 [26] was 38.9 µM. The TGI [26] was 96.5 µM, the GI50 [27] was over 100 µM and the TGI [27] was over 100 µM. For the same compound, the GI50 [28] was over 100 µM, the TGI [28] was over 100 µM and the GI50 [29] was over 100 µM. The TGI [29] was over 100 µM, the GI50 [30] was over 100 µM and the TGI [30] was over 100 µM. For the same compound, the GI50 [31] was over 100 µM, the TGI [31] was over 100 µM and the GI50 [32] was over 100 µM. It also gave a TGI [32] of over 100 µM, a GI50 [33] of over 100 µM and a TGI [33] of over 100 µM. The GI50 [34] was over 100 µM, the TGI [34] was over 100 µM and the GI50 [35] was over 100 µM. It also gave a TGI [35] of over 100 µM, a GI50 [36] of over 100 µM and a TGI [36] of over 100 µM. It also gave a GI50 [37] of over 100 µM, a TGI [37] of over 100 µM and a GI50 [38] of over 100 µM. For the same compound, the TGI [38] was over 100 µM, the GI50 [39] was over 100 µM and the TGI [39] was over 100 µM. It also gave a GI50 [40] of over 100 µM, a TGI [40] of over 100 µM and a GI50 [41] of over 100 µM. For the same compound, the TGI [41] was over 100 µM, the GI50 [42] was over 100 µM and the TGI [42] was over 100 µM. For the same compound, the GI50 [43] was over 100 µM, the TGI [43] was over 100 µM and the GI50 [44] was over 100 µM. It also gave a TGI [44] of over 100 µM, a GI50 [45] of over 100 µM and a TGI [45] of over 100 µM. The GI50 [46] was over 100 µM, the TGI [46] was over 100 µM and the GI50 [47] was over 100 µM. For the same compound, the TGI [47] was over 100 µM, the GI50 [48] was over 100 µM and the TGI [48] was over 100 µM. For the same compound, the GI50 [49] was over 100 µM, the TGI [49] was over 100 µM and the GI50 [50] was over 100 µM. It also gave a TGI [50] of over 100 µM, a GI50 [51] of over 100 µM and a TGI [51] of over 100 µM. It also gave a GI50 [52] of over 100 µM, a TGI [52] of over 100 µM and a GI50 [53] of over 100 µM. It also gave a TGI [53] of over 100 µM, a GI50 [54] of over 100 µM and a TGI [54] of over 100 µM.
